{"source": "patent US5705649A", "about": "“Protein staining compositions and methods” (Promega Corporation, priority 1995, dated 1998)", "key": {"[1]": {"system": "Promega Mid-Range Molecular Weight Standards", "test": "Post-electrophoretic detection of protein using NBODY derivatives", "conditions": "crude dye solution in 5% acetic acid, 20% ethanol, one hour", "protocol": "Promega Mid-Range Molecular Weight Standards were diluted and heated as described in Example 27 to produce solutions containing 125, 25, 5 and 1 ng of protein per band in 10 microliters of solution. A 10% Tris Glycine, precast polyacrylamid gel from Novex Corp. (San Diego, Calif., USA, Cat. No. EC 6075.) was loaded with 10 microliters of the just described, diluted molecular weight standard solutions in lanes so that two lanes, each with the same diluted standard solution, were separated by a blank lane. The gel was developed using conditions recommended by the manufacturer and following development, the gel was cut in the blank lane. The segments were placed in 50 ml of 5% acetic acid, 20% ethanol. Six hundred microliters of the NBODY-C12 reaction mixture from Example 40 was added to the solution with one of the segments of a pair (of lanes with the same protein molecular weight standard solution) and three hundred microliters of the NBODY-C16 reaction mixture from Example 40 was added to the solution with the other segment of the same pair. After one hour of incubation, the gel segments were photographed on a transilluminator as described in example 27. Protein bands were detected in the lanes containing the 125 and 25 ng of protein per band using this method and the crude dye solutions from Example 40."}, "[2]": {"system": "Promega Mid-Range Molecular Weight Markers", "test": "Sensitive post-electrophoretic detection of protein using purified NBODY dye", "protocol": "A 12% SDS-PAGE gel was prepared as described in Example 27 and was loaded with dilute Promega Mid-Range Molecular Weight Markers (diluted and heated as in Example 27) to produce lanes which contained 100, 80, 60, 40, 20, 10 and 5 ng of protein per band. The gel was run in a BioRad Miniprotean II gel system at 50V for 1.5 hr. then 125V until the tracking dye reached the bottom of the gel. After the dye reached the bottom of the gel, the gel was removed from the apparatus and placed in 50 ml of 5% acetic acid, 20% ethanol.\nThe NBODY dye prepared as in Example 40 with n-dodecyl amine was purified by applying 2 ml of the NBODY-C12 reaction mixture from Example 40 3cm from one edge of a 25×25cm silica gel plate (Sigma Chemical Co., St. Louis, […]., USA). The plate was developed using a 6:1 ratio of tolulene:ethyl acetate. […]\nAfter 30 minutes in the 5% acetic acid, 20 % ethanol, the gel was removed from that solution and replaced with a solution containing the purified NBODY-C12 stain with the following composition: one ml of purified NBODY-C12 solution was placed in 50 ml of 35% ethanol, 5% acetic acid. […] After one hour in the water solution, the gel was scanned on a Molecular Dynamics Fluoroimager (Molecular Dynamics, Sunnyvale, Calif.), which excites fluorescence with laser light of 483 nm wavelength."}, "[3]": {"system": "Promega Mid-Range Molecular Weight Standards", "test": "Detection of proteins during SDS-PAGE with Acid Blue 25 dyes", "conditions": "0.01% (w/v) in cathode buffer (Example 23)", "excerpt": "Ten μl of each solution was loaded into lanes of the three gels, and they were placed into three separate Bio-Rad Miniprotean II gel apparati (Bio-Rad, Richmond, Calif., USA) with the cathode solutions containing 1.0, 0.75, or 0.5% (v/v) of the derivatized Acid Blue 25 preparation (unpurified). The samples were then fractionated within the gels by application of 15 mA of current per gel."}}, "data": [{"smiles": "CCCCCCCCCCCCNC(=O)CCCCCNc1ccc([N+](=O)[O-])c2nonc12", "note": "[NBODY-C12]", "values": [{"measurement": "lowest protein per band detected", "setting": "[1]", "value": 25, "unit": "ng"}, {"measurement": "visibility of protein bands", "setting": "[2]; lanes of 100 to 5 ng per band", "value": "Protein bands were seen for all of the protein species in the lanes containing all protein concentrations"}, {"measurement": "detection limit", "setting": "[2]; purified dye in 35% ethanol, 5% acetic acid, one hour, water one hour, Fluoroimager 483 nm", "value": "lower than 5 ng"}]}, {"smiles": "Nc1c(S(=O)(=O)O)cc(Nc2ccccc2)c2c1C(=O)c1ccccc1C2=O", "note": "[unmodified Acid Blue 25]", "values": [{"measurement": "visibility of protein bands during electrophoresis", "setting": "[3]", "value": "no protein bands were seen"}]}]}
